Converted amounts (≈) assume the structure as drawn.

Among the test systems are Escherichia coli ML-35p; Escherichia coli; Staphylococcus aureus.
What all share (experiment): ≥ marks a high value that may be exact or a test limit, other limits are often not marked, values filed in µg/mL are converted to µM
Assay [1] concerns Candida albicans NCYC 1467.
For assay [2], the system named is Enterococcus faecalis NCTC 12697.
For assay [3], the system named is Escherichia coli NCTC 10418.
For assay [4], the system named is Klebsiella pneumoniae ATCC 43816.
Assay [5] concerns Pseudomonas aeruginosa ATCC 27853.
Assay [6] relates to Staphylococcus aureus NCTC 10788.
In assay [7] the test system is Staphylococcus aureus NCTC 12493.
For assay [8], the system named is Acinetobacter baumannii 7226/16.
For assay [9], the system named is Escherichia coli ESBL 521/17.
Assay [10] relates to Klebsiella pneumoniae ESBL 344/17.
Assay [11] relates to Pseudomonas aeruginosa 522/17.
Assay [12] deals with Staphylococcus aureus 1399/17.
Assay [13] has as its system Staphylococcus aureus ATCC 33591.
The test system of assay [14] is Staphylococcus aureus SG511.
Assay [15] relates to Candida albicans ATCC 24433.
For assay [16], the system named is Candida parapsilosis ATCC 22019.
The test system of assay [17] is Trichophyton rubrum ATCC 28189.

Usually MIC stands for the lowest concentration found to suppress growth. The low end stands for a more susceptible organism, the high end for a less susceptible organism. With `CC[C@H](C)[C@@H]1NC(=O)[C@H](C)NC(=O)[C@@H](NC(=O)[C@H](Cc2ccccc2)NC(=O)[C@@H](NC(=O)[C@H](CCCCN)NC(=O)[C@@H]2CCCN2C(=O)[C@H](CC(C)C)NC(=O)[C@H](Cc2ccccc2)NC(=O)[C@@H](N)CCCCN)[C@@H](C)CC)CSSC[C@@H](C(=O)O)NC(=O)[C@H](CCCCN)NC(=O)[C@H](CCCCN)NC(=O)[C@H]([C@@H](C)O)NC1=O` [KFLPKIFCAITKKC], the minimum inhibitory concentration (MIC) is at least 128 µM in assay [1]; at least 512 µM in assay [2]; at least 32 µM in assay [3]; at least 256 µM in assay [4]; 512 µM (≈ 839 µg/mL) in [5]; 8 µM (≈ 13.1 µg/mL) in assay [6]. Further, the MIC in assay [7] is 16 µM (≈ 26.2 µg/mL).
As for `CC[C@H](C)[C@@H]1NC(=O)[C@H](C)NC(=O)[C@@H](NC(=O)[C@H](Cc2ccccc2)NC(=O)[C@@H](NC(=O)[C@H](CCCCN)NC(=O)[C@H](Cc2c[nH]c3ccccc23)NC(=O)[C@@H]2CCCN2C(=O)[C@H](CC(C)C)NC(=O)[C@H](Cc2ccccc2)NC(=O)[C@@H](N)CCCCN)[C@@H](C)CC)CSSC[C@@H](C(=O)O)NC(=O)[C@H](CCCCN)NC(=O)[C@H](CCCCN)NC(=O)[C@H]([C@@H](C)O)NC1=O` [KFLPWKIFCAITKKC], the minimal inhibitory concentration (MIC) in assay [1] was 16 µM (≈ 29.2 µg/mL); in assay [2], at least 256 µM; in assay [3], 16 µM (≈ 29.2 µg/mL); in assay [4], at least 64 µM; in [5], 128 µM (≈ 234 µg/mL); in [6], 8 µM (≈ 14.6 µg/mL). Besides, the minimal inhibitory concentration (MIC) in assay [7] worked out at 8 µM (≈ 14.6 µg/mL).
On to `CC[C@H](C)[C@H](NC(=O)[C@H](CCCN=C(N)N)NC(=O)[C@@H](NC(=O)[C@H](Cc1ccccc1)NC(=O)[C@@H]1CCCN1C(=O)[C@@H]1CCCN1C(=O)[C@@H]1CCCN1C(=O)[C@H](Cc1cnc[nH]1)NC(=O)[C@@H](NC(=O)[C@H](CCCN=C(N)N)NC(=O)[C@H](CCCN=C(N)N)NC(=O)[C@H](Cc1ccccc1)NC(=O)[C@@H]1CCCN1C(=O)[C@H](CC(C)C)NC(=O)[C@H](CCCN=C(N)N)NC(=O)[C@H](Cc1ccccc1)NC(=O)[C@@H](N)CCCN=C(N)N)[C@@H](C)CC)C(C)C)C(=O)N[C@@H](Cc1cnc[nH]1)C(=O)N1CCC[C@H]1C(=O)N1CCC[C@H]1C(=O)N1CCC[C@H]1C(=O)N[C@@H](Cc1ccccc1)C(=O)N[C@@H](Cc1ccc(O)cc1)C(=O)N[C@@H](CCCN=C(N)N)C(=O)N[C@@H](CCCN=C(N)N)C(=O)N[C@@H](Cc1ccccc1)C(=O)N[C@@H](CC(C)C)C(=O)O` [RFRLPFRRIHPPPFVRIHPPPFYRRFL], for which the minimal inhibitory concentration (MIC) in [8] amounted to 4 µM (≈ 14.1 µg/mL); in assay [9], 5.66 µM (≈ 19.9 µg/mL); in the assay on Escherichia coli ML-35p, 2.83 µM (≈ 9.95 µg/mL); in assay [10], 8 µM (≈ 28.1 µg/mL); in [11] it was 16 µM (≈ 56.3 µg/mL); in [12] it was 8 µM (≈ 28.1 µg/mL). Moreover, the minimum inhibitory concentration (MIC) came to 16 µM (≈ 56.3 µg/mL) in assay [13] and 0.25 µM (≈ 0.879 µg/mL) in assay [14].
In the case of `CC[C@H](C)[C@H](NC(=O)[C@H](CCCN=C(N)N)NC(=O)[C@@H](NC(=O)[C@@H]1CCCN1C(=O)[C@@H]1CCCN1C(=O)[C@H](CCCN=C(N)N)NC(=O)[C@H](CCCN=C(N)N)NC(=O)[C@H](Cc1ccccc1)NC(=O)[C@@H]1CCCN1C(=O)[C@H](CC(C)C)NC(=O)[C@H](CCCN=C(N)N)NC(=O)[C@H](Cc1ccccc1)NC(=O)[C@@H](N)CCCN=C(N)N)[C@@H](C)CC)C(=O)N[C@@H](Cc1cnc[nH]1)C(=O)N1CCC[C@H]1C(=O)N1CCC[C@H]1C(=O)N1CCC[C@H]1C(=O)N[C@@H](Cc1ccccc1)C(=O)N[C@@H](Cc1ccc(O)cc1)C(N)=O` [RFRLPFRRPPIRIHPPPFY], the minimum inhibitory concentration (MIC) in [8] is 16 µM (≈ 39.4 µg/mL); in assay [9], 4 µM (≈ 9.85 µg/mL); in the assay with Escherichia coli ML-35p it was 4 µM (≈ 9.85 µg/mL); in [10], 8 µM (≈ 19.7 µg/mL); in assay [11] it was at least 64 µM; in assay [12], at least 32 µM. Also, the minimum inhibitory concentration (MIC) in assay [13] is at least 64 µM; in assay [14], 4 µM (≈ 9.85 µg/mL).
`CC[C@H](C)[C@H](NC(=O)[C@@H](N)CCCN=C(N)N)C(=O)N[C@@H](Cc1cnc[nH]1)C(=O)N1CCC[C@H]1C(=O)N1CCC[C@H]1C(=O)N1CCC[C@H]1C(=O)N[C@@H](Cc1ccccc1)C(=O)N[C@@H](Cc1ccc(O)cc1)C(=O)N1CCC[C@H]1C(=O)N1CCC[C@H]1C(=O)N[C@@H](Cc1ccccc1)C(=O)N[C@@H](CCCN=C(N)N)C(=O)N[C@@H](CCCN=C(N)N)C(=O)N[C@@H](Cc1ccccc1)C(=O)N[C@@H](CC(C)C)C(N)=O` [RIHPPPFYPPFRRFL]: the minimum inhibitory concentration (MIC) in [8] was at least 32 µM; in assay [9], at least 32 µM; against Escherichia coli ML-35p, at least 64 µM; in [10] it was at least 64 µM; in [11], at least 128 µM; in [12], at least 32 µM. For the same molecule, the minimum inhibitory concentration (MIC) in [13] was at least 90.5 µM; in assay [14] it was 8 µM (≈ 15.5 µg/mL).
Regarding `CC[C@H](C)[C@H](NC(=O)[C@H](CCCCN)NC(=O)[C@H](CCC(=O)O)NC(=O)[C@H](CO)NC(=O)[C@H](CCCN=C(N)N)NC(=O)[C@@H](N)CO)C(=O)N[C@H](C(=O)N[C@@H](Cc1cnc[nH]1)C(=O)N[C@@H](CCC(N)=O)C(=O)N[C@@H](CCCN=C(N)N)C(=O)N[C@@H](CC(C)C)C(=O)N[C@@H](Cc1ccccc1)C(N)=O)C(C)C` [SRSEKIVHQRLF], the minimum inhibitory concentration (MIC) is at least 267 µM in assay [15]; at least 267 µM in assay [16]; over 267 µM in the assay on Escherichia coli; over 267 µM with Staphylococcus aureus; at least 267 µM in assay [17].

For the origin of these results see DBAASP.
